Counter-ions that a name gives are not always drawn.
Molecular target: kinase domain of IRE1 alpha (His-tagged kinase dead construct KR, AA G547-L977, D688N) (Homo sapiens (Human), UniProt O75460, D688N)
Assay: IRE1α TR-FRET competition binding assay
Settings: competition with Kinase Tracer 236, 0.1 μM; one hour at room temperature
Method in brief: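 Sf9-expressed kinase-dead KR construct (0.006 μM final) pre-incubated 1 h at 4° C with Eu anti-His antibody (0.002 μM) in HEPES pH 7.5/MgCl2/Brij/DTT buffer; Kinase Tracer 236 (ATP-competitive probe, 0.1 μM final) added with compound. 1 h at room temperature; tracer displacement read by TR-FRET (665/615 nm).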

Chain of kinase domain of IRE1 alpha (His-tagged kinase dead construct KR, AA G547-L977, D688N) (O75460 547-977 D688N): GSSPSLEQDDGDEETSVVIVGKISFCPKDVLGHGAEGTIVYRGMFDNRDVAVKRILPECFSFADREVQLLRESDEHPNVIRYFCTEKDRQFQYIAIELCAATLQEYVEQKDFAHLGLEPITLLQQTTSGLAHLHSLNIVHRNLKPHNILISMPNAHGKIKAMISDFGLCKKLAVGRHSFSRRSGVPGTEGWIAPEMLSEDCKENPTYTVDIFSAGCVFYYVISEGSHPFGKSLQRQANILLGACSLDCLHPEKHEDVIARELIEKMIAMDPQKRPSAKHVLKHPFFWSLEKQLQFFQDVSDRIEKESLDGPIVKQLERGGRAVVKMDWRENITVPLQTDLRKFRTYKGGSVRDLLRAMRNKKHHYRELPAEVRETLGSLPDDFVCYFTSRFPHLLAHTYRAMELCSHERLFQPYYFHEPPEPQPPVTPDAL

CCCS(=O)(=O)Nc1cc(C)c(Oc2ncccc2-c2ccnc(N[C@H]3CCCNC3)n2)cc1C [Compound 126, (S)-N-(2,5-Dimethyl-4-((3-(2-(piperidin-3-ylamino)pyrimidin-4-yl)pyridin-2-yl)oxy)phenyl)propane-1-sulfonamide]
IC50: 280 nM

CC(c1ccc(C#N)cc1)S(=O)(=O)Nc1ccc(Oc2ncccc2-c2ccnc(N[C@H]3CCCNC3)n2)c(F)c1F (stereo partly drawn) [Compound 379, 1-(4-Cyanophenyl)-N-(2,3-difluoro-4-((3-(2-(((S)-piperidin-3-yl)amino)pyrimidin-4-yl)pyridin-2-yl)oxy)phenyl)ethane-1-sulfonamide]
IC50: 0.3 nM

CN=S(=O)(Cc1ccccc1)Nc1ccc(Oc2ncccc2-c2ccnc(N[C@H]3CCCNC3)n2)c(F)c1F (stereo partly drawn) [Compound 274, N-(2,3-difluoro-4-((3-(2-(((S)-piperidin-3-yl)amino)pyrimidin-4-yl)pyridin-2-yl)oxy)phenyl)-N′-methyl-1-phenylmethanesulfonimidamide]
IC50: 400 nM

COc1cccc(S(=O)(=O)Nc2ccc(Oc3ncccc3-c3ccnc(N[C@H]4CCCNC4)n3)c(F)c2F)c1 [Compound 212, (S)-N-(2,3-difluoro-4-((3-(2-(piperidin-3-ylamino)pyrimidin-4-yl)pyridin-2-yl)oxy)phenyl)-3-methoxybenzenesulfonamide]
IC50: 25 nM

Cc1cc(F)ccc1CS(=O)(=O)Nc1c(F)cc(Oc2ncccc2-c2ccnc(N[C@@H]3CNC[C@@H](F)C3)n2)c(F)c1F [Compound 322, 1-(4-Fluoro-2-methylphenyl)-N-(2,3,6-trifluoro-4-((3-(2-(((3S,5S)-5-fluoropiperidin-3-yl)amino)pyrimidin-4-yl)pyridin-2-yl)oxy)phenyl)methanesulfonamide]
IC50: 0.42 nM

CCCCS(=O)(=O)Nc1cc(C)c(Oc2ncccc2-c2ccnc(N[C@H]3CCCNC3)n2)c(F)c1 [Compound 115, (S)-N-(3-fluoro-5-methyl-4-((3-(2-(piperidin-3-ylamino)pyrimidin-4-yl)pyridin-2-yl)oxy)phenyl)butane-1-sulfonamide hydrochloride]
IC50: 30 nM

Cc1ccc(CS(=O)(=O)Nc2cc(C)c(Oc3ncccc3-c3ccnc(N[C@@H]4CNC[C@@](C)(F)C4)n3)c(F)c2F)cc1 [Compound 297, N-(2,3-Difluoro-4-((3-(2-(((3S,5S)-5-fluoro-5-methylpiperidin-3-yl)amino)pyrimidin-4-yl)pyridin-2-yl)oxy)-5-methylphenyl)-1-(p-tolyl)methanesulfonamide]
IC50: 0.28 nM

O=S(=O)(Cc1cccc(F)c1)Nc1ccc(Oc2ncccc2-c2ccnc(N[C@H]3CCCNC3)n2)c(F)c1F [Compound 231, (S)-N-(2,3-difluoro-4-((3-(2-(piperidin-3-ylamino)pyrimidin-4-yl)pyridin-2-yl)oxy)phenyl)-1-(3-fluorophenyl)methanesulfonamide]
IC50: 7.2 nM

O=S(=O)(Cc1cccc(Cl)c1)Nc1c(F)cc(Oc2ncccc2-c2ccnc(N[C@@H]3CNC[C@@H](F)C3)n2)c(F)c1F [Compound 353, 1-(3-Chlorophenyl)-N-[2,3,6-trifluoro-4-[[3-[2-[[(3S,5S)-5-fluoro-3-piperidyl]amino]pyrimidin-4-yl]-2-pyridyl]oxy]phenyl]methanesulfonamide]
IC50: 0.3 nM

O=S(=O)(Cc1ccccc1)Nc1c(F)cc(Oc2ncccc2-c2ccnc(NC3CNCC4(C3)CC4(F)F)n2)c(F)c1F (single isomer, unassigned) [Compound 299, N-(4-((3-(2-((1,1-Difluoro-5-azaspiro[2.5]octan-7-yl)amino)pyrimidin-4-yl)pyridin-2-yl)oxy)-2,3,6-trifluorophenyl)-1-phenylmethanesulfonamide]
IC50: 0.38 nM

COCC1CNCC(Nc2nccc(-c3cccnc3Oc3cc(F)c(NS(=O)(=O)Cc4ccccc4)c(F)c3F)n2)C1 (single isomer, unassigned) [Compound 330, 1-Phenyl-N-(2,3,6-trifluoro-4-((3-(2-((5-(methoxymethyl)piperidin-3-yl)amino)pyrimidin-4-yl)pyridin-2-yl)oxy)phenyl)methanesulfonamide]
IC50: 87 nM

COC1CNCC(Nc2nccc(-c3cccnc3Oc3cc(F)c(NS(=O)(=O)Cc4ccccc4)c(F)c3F)n2)C1 (single isomer, unassigned) [Compound 317, 1-Phenyl-N-(2,3,6-trifluoro-4-((3-(2-((5-methoxypiperidin-3-yl)amino)pyrimidin-4-yl)pyridin-2-yl)oxy)phenyl)methanesulfonamide]
IC50: 140 nM

O=S(=O)(Cc1ccncc1)Nc1ccc(Oc2ncccc2-c2ccnc(N[C@H]3CCCNC3)n2)c(F)c1F [Compound 234, (S)-N-(2,3-difluoro-4-(3-(2-(piperidin-3-ylamino)pyrimidin-4-yl)pyridin-2-yloxy)phenyl)-1-(pyridin-4-yl)methanesulfonamide]
IC50: 7 nM

Cc1c(NC(=O)CC2CCCCC2)ccc(Oc2ncccc2-c2ccnc(N[C@H]3CCCNC3)n2)c1C [Compound 129, (S)-2-Cyclohexyl-N-(2,3-dimethyl-4-((3-(2-(piperidin-3-ylamino)pyrimidin-4-yl)pyridin-2-yl)oxy)phenyl)acetamide]
IC50: 230 nM

O=S(=O)(Cc1ccc(C(F)F)cc1)Nc1c(F)cc(Oc2ncccc2-c2ccnc(N[C@@H]3CNC[C@@H](F)C3)n2)c(F)c1F [Compound 371, 1-(4-(Difluoromethyl)phenyl)-N-(2,3,6-trifluoro-4-((3-(2-(((3S,5S)-5-fluoropiperidin-3-yl)amino)pyrimidin-4-yl)pyridin-2-yl)oxy)phenyl)methanesulfonamide]
IC50: 0.3 nM

Cc1cc(NS(=O)(=O)c2ccccc2Cl)ccc1Oc1ncccc1-c1ccnc(N[C@H]2CC[C@H](N)CC2)n1 [Compound 101, N-[4-[[3-[2-[(4-aminocyclohexyl)amino]pyrimidin-4-yl]-2-pyridyl]oxy]-3-methyl-phenyl]-2-chloro-benzenesulfonamide hydrochloride]
IC50: 13 nM

C[C@H]1CNC[C@@H](Nc2nccc(-c3cccnc3Oc3cc(F)c(NS(=O)(=O)Cc4ccccc4)c(F)c3F)n2)C1 [Compound 165, 1-phenyl-N-(2,3,6-trifluoro-4-((3-(2-(((3S,5R)-5-methyl-3-piperidyl)amino)pyrimidin-4-yl)-2-pyridyl)oxy)phenyl)methanesulfonamide]
IC50: 2.7 nM

O=S(=O)(CCC(F)(F)F)Nc1c(F)cc(Oc2ncccc2-c2ccnc(N[C@@H]3CNC[C@@H](F)C3)n2)c(F)c1F [Compound 205, 3,3,3-trifluoro-N-(2,3,6-trifluoro-4-((3-(2-(((3S,5S)-5-fluoro-3-piperidyl)amino)pyrimidin-4-yl)-2-pyridyl)oxy)phenyl)propane-1-sulfonamide]
IC50: 4.4 nM

O=S(=O)(Cc1ccccc1)Nc1c(F)cc(Oc2ncccc2-c2ccnc(NC3CNCC4(C3)CC4(F)F)n2)c(F)c1F (single isomer, unassigned) [Compound 301, N-(4-((3-(2-((1,1-Difluoro-5-azaspiro[2.5]octan-7-yl)amino)pyrimidin-4-yl)pyridin-2-yl)oxy)-2,3,6-trifluorophenyl)-1-phenylmethanesulfonamide]
IC50: 0.36 nM

Cc1cc(NC(=O)C2CC2)cc(F)c1Oc1ncccc1-c1ccnc(N[C@H]2CC[C@H](N)CC2)n1 [Compound 120, N-(4-((3-(2-(((1r,4r)-4-aminocyclohexyl)amino)pyrimidin-4-yl)pyridin-2-yl)oxy)-3-fluoro-5-methylphenyl)cyclopropanecarboxamide hydrochloride]
IC50: 110 nM

COCC1CNCC(Nc2nccc(-c3cccnc3Oc3cc(F)c(NS(=O)(=O)Cc4ccccc4)c(F)c3F)n2)C1 (single isomer, unassigned) [Compound 328, 1-Phenyl-N-(2,3,6-trifluoro-4-((3-(2-((5-(methoxymethyl)piperidin-3-yl)amino)pyrimidin-4-yl)pyridin-2-yl)oxy)phenyl)methanesulfonamide]
IC50: 11 nM

Cc1cc(NS(=O)(=O)C(C)c2ccccc2)c(F)c(F)c1Oc1ncccc1-c1ccnc(N[C@@H]2CNC[C@@H](F)C2)n1 (single isomer, unassigned) [Compound 313, hydrochloride]
IC50: 1.2 nM

O=S(=O)(Cc1ccccc1)Nc1c(F)cc(Oc2ncccc2-c2ccnc(NC3CC4CCCN(C4)C3)n2)c(F)c1F (single isomer, unassigned) [Compound 287, N-(4-((3-(2-((1-azabicyclo[3.3.1]nonan-3-yl)amino)pyrimidin-4-yl)pyridin-2-yl)oxy)-2,3,6-trifluorophenyl)-1-phenylmethanesulfonamide hydrochloride]
IC50: 1.5 nM

CN1CCC(Nc2nccc(-c3cccnc3Oc3ccc(NS(=O)(=O)Cc4ccccc4)c(F)c3F)n2)CC1 [Compound 168, N-(2,3-difluoro-4-((3-(2-((1-methylpiperidin-4-yl)amino)pyrimidin-4-yl)pyridin-2-yl)oxy)phenyl)-1-phenylmethanesulfonamide]
IC50: 67 nM

O=S(=O)(Cc1ccccc1Cl)Nc1c(F)cc(Oc2ncccc2-c2ccnc(N[C@@H]3CNC[C@@H](F)C3)n2)c(F)c1F [Compound 352, 1-(2-Chlorophenyl)-N-[2,3,6-trifluoro-4-[[3-[2-[[(3S,5S)-5-fluoro-3-piperidyl]amino]pyrimidin-4-yl]-2-pyridyl]oxy]phenyl]methanesulfonamide]
IC50: 0.2 nM

O=S(=O)(Cc1ccccc1)Nc1c(F)cc(Oc2ncccc2-c2ccnc(N[C@H]3CCCNC3)n2)c(F)c1F [Compound 153, (S)-1-Phenyl-N-(2,3,6-trifluoro-4-((3-(2-(piperidin-3-ylamino)pyrimidin-4-yl)pyridin-2-yl)oxy)phenyl)methanesulfonamide hydrochloride]
IC50: 3.8 nM

Cc1c(Oc2ncccc2-c2ccnc(N[C@H]3CCCNC3)n2)ccc(NS(=O)(=O)Cc2ccccc2)c1F [Compound 237, N-[2-Fluoro-3-methyl-4-[[3-[2-[[(3S)-3-piperidyl]amino]pyrimidin-4-yl]-2-pyridyl]oxy]phenyl]-1 phenylmethanesulfonamide]
IC50: 8.4 nM

Reference: US12071425B2 (Genentech, Inc., priority 2018, dated 2024)
